The values that follow come from patent publication US20240139214A1, “AGENT FOR SUPPRESSING IL-31 PRODUCTION AND PHARMACEUTICAL COMPOSITION CONTAINING THE SAME” (KYUSHU UNIVERSITY, NATIONAL UNIVERSITY CORPORATION, priority 2021, published 2024).

Each structure is given as a SMILES string.

The test system of series [1] is mouse IL-31 gene. The series can be described thus: IL-31 production inhibitory action: IL-31 gene expression by real-time PCR in antigen-stimulated CD4+ T cells from Dock8−/− AND Tg mice. Format: cell-based. In general terms: Real-time PCR tracks product formation cycle by cycle.
For series [2], the system named is CD4+ T cells. The series can be described thus: T cell proliferation assay (PMA and ionomycin, 3H-thymidine incorporation). Format: cell-based, mouse. How it is done: A T cell proliferation assay was performed by culturing CD4^+ T cells (5×10^4 cells) with T cell-depleted irradiated spleen cells (1×10^6 cells) in the presence of phorbol 12-myristate 13-acetate (PMA: 100 ng/ml; Sigma-Aldrich) and ionomycin (1 μg/ml; Sigma-Aldrich) for 66 hours. For the last 18 hours of culture, ^3H-thymidine (0.037 MBq) was added, and the incorporated radioactivity was measured with MicroBeta^2 (PerkinElmer, Inc., Waltham, MS).
A T cell proliferation assay was performed by culturing CD4^+ T cells (5×10^4 cells) with T cell-depleted irradiated spleen cells (1×10^6 cells) in the presence of phorbol 12-myristate 13-acetate (PMA: 100 ng/ml; Sigma-Aldrich) and ionomycin (1 μg/ml; Sigma-Aldrich) for 66 hours. Test compounds were added at various final concentrations at the start of culture. For the last 18 hours of culture, ^3H-thymidine (0.037 MBq) was added, and the incorporated radioactivity was measured with MicroBeta^2 (PerkinElmer, Inc., Waltham, MS). […]
(Uptake of a labelled nucleoside into DNA is a usual measure of proliferation.)

The test system of series [3] is IL-2 gene (Il2). The series can be described thus: IL-2 gene expression in CD4+ T cells from Dock8−/− AND Tg mice (real-time PCR). It is filed as cell-based, mouse. Conditions: 2.5 μM; FIG. 2B. The procedure: (§1) Total RNA was isolated using ISOGEN (Nippon Gene Co., Ltd.). For amplification by PCR, RNA samples treated with RNase-free DNase I (Thermo Fisher Scientific) were reverse-transcribed with oligo(dT) primers (TFS) and SuperScript III reverse transcriptase (TFS). Real-time PCR was performed in a CFX Connect™ thermal cycler (BIO-RAD) using SYBR Green PCR Master Mix (Thermo Fisher Scientific). The expression of mouse and human target genes was normalized to expression of Hprt and PPIB genes, respectively. CFX Manager software (ver.3.1) supplied with the instrument was used for analysis.
(§2) CD4^+ T cells (3×10^5 cells) from Dock8^−/− AND Tg mice were cultured with T cell-depleted irradiated spleen cells (5×10^6 cells) containing a test compound (2.5 μM) or a vehicle alone (0.1% DMSO), in the presence of MCC88-103 (3 μg/ml) for 24 hours.

Series [4] deals with IL-4 gene (Il4). The series can be described thus: IL-4 gene expression in CD4+ T cells from Dock8−/− AND Tg mice (real-time PCR). Format: cell-based, mouse. The following applies: 2.5 μM; FIG. 2B. The procedure:
as §1, §2

Series [5] can be described thus: Single-dose toxicity study, oral administration. Format: in vivo. The following applies: 100-mg oral administration. How it is done: From these, it is determined that compound 1 is a highly safe compound with low cytotoxicity.
Series [6] in a line: Blood concentration after oral administration. Format: in vivo. Conditions: 100 mg orally, C57BL/6 mice, monitored 24 hours; FIG. 5. The procedure: After compound 1 (100 mg) was orally administered to C57BL/6 mice (n=3), its blood concentration was monitored for 24 hours.
Series [7] concerns CAG-OVA mice. The series can be described thus: Scratch behavior measurement in CAG-OVA mice injected with activated CD4+ T cells from Dock8−/− OTII Tg mice. It is filed as in vivo. Conditions: oral administration; FIG. 6. How it is done: Mice were put into an acrylic cage (11×14×20 cm) for at least 1 hour for acclimation, and their behaviors were videotaped. Playback of the video was used for determination of the total number of scratching bouts per 2 hours. When mice scratch, they stretch their hind paw toward the itchy spot, lean their head toward the hind paw, rapidly move the paw several times, and then lower it back to the floor. A series of these movements was counted as one bout of scratching.
To investigate whether compound 1 has an itch inhibitory action, mice expressing ovalbumin (OVA) under the control of the cytomegalovirus immediate early enhancer-chicken β-actin hybrid promoter (hereafter referred to as “CAG-OVA mice”) were used. Activated CD4^+ T cells (8.0×10^6 per mouse) from Dock8^−/− OTII Tg mice were stimulated with OVA323-339 (ISQAVHAAHAEINEAGR (SEQ ID NO: 2), 1 μg/ml) for 72 hours and intravenously injected into CAG-OVA mice, and the scratch behavior of the mice was measured 1 hour later. As a result, when the activated CD4^+ T cells were injected into CAG-OVA mice, scratch behavior was induced (see the results of the vehicle in FIG. 6).

The subject of series [8] is VEGFA expression in human cancer cell line HT1080. The series can be described thus: Hypoxia-induced VEGFA expression in HT1080. Format: cell-based. The following applies: HT1080, 1% O2; FIG. 7. The procedure:
(§3) Human sarcoma cell line HT1080 was provided by Y. Matsumoto (Kyushu University). For hypoxic induction, HT1080 (3×10^5 cells) was cultured in 1% O2 for 12 hours before assays.
as §1
(§4) (1) Although EPAS1 is known to control hypoxic responses through complex formation with aryl hydrocarbon receptor nuclear translocator (ARNT) (NPL 6), EPAS1-mediated Il31 promoter activation is independent of ARNT (NPL 4). FM19G11 is not a direct inhibitor of EPAS1, but is known to suppress the expression of the EPAS1 gene (Epas1) by acting on an unidentified target (NPL 7). Treatment of human cancer cell line HT1080 with […] suppressed VEGFA expression and GLUT1 expression induced by hypoxia (FIG. 7).

Series [9] has as its system GLUT1 expression in human cancer cell line HT1080. The series can be described thus: Hypoxia-induced GLUT1 expression in HT1080. Conditions: HT1080, 1% O2; FIG. 7. Format: cell-based. How it is done: as §3, §1, §4
Series [10] concerns the target T1, EPAS1 (Mus musculus, UniProt P97481).
T1 construct: endogenous in cells; host or cells: CD4+ T cells from Dock8-/- AND Tg mice, stimulated with MCC88-103
The series can be described thus: Chromatin immunoprecipitation (ChIP) assay: recruitment of EPAS1 to the IL-31 gene promoter region in CD4+ T cells. It is filed as cell-based. The following applies: antigen stimulation, 2.5 μM; FIG. 8. How it is done:
A ChIP assay was performed using activated mouse CD4^+ T cells and immortalized MEFs. Briefly, CD4^+ T cells from Dock8^−/− AND Tg mice were stimulated with MCC88-103 in the presence of a test compound (2.5 μM) or a vehicle alone (0.1% DMSO) for 24 hours. Immortalized MEFs were co-transfected with pcDNA-human EPAS1 (2 μg) in the presence of pGL4.10 IL31 (2 μg). Six hours after transfection, the MEFs were suspended in 10% FCS-containing DMEM that contains a test compound (10 μM) or a vehicle alone (0.1% DMSO) for another 24 hours.
The activated mouse CD4^+ cells and the transfected MEFs were treated with 0.5% formaldehyde at room temperature for 5 minutes and then neutralized with glycine at room temperature for 5 minutes. The resulting cells were washed twice with PBS containing a protease inhibitor, and then nuclei were isolated using a Magna ChIP™ HiSens kit (Millipore, Burlington, MS) according to the manufacturer's protocol. […] After centrifugation at 10,000 g at 4° C. for 10 minutes, the sheared chromatin DNA was obtained and treated with RNase and proteinase K for quantifying DNA content. […]
Magnetic beads preincubated with rabbit polyclonal IgG (ab171870; Abcam) were used for control studies. […] Eluted DNA and input chromatin DNA were analyzed with a CFX Connect™ thermal cycler (BIO-RAD) using SYBR Green PCR Master Mix (Thermo Fisher Scientific) and the following primers. […]

The subject of series [11] is IL-31. The series can be described thus: IL-31 production by SEB-stimulated human CD4+ T cells of AD patients (AlphaLISA). Format: cell-based. Conditions: SEB stimulation; FIG. 9A.
The subject of series [12] is IL-2. The series can be described thus: IL-2 production by SEB-stimulated human CD4+ T cells of AD patients (AlphaLISA). It is filed as cell-based. Conditions: SEB stimulation; FIG. 9B. In general terms: Bead proximity is the source of the signal in Alpha formats.
Series [13] deals with human IL-31 gene promoter. The series can be described thus: Luciferase reporter assay of human IL-31 gene promoter in MEFs in the presence of human EPAS1. It is filed as cell-based. The following applies: reporter construct (−1,308 to −1) in MEFs.
Setting [14] is: Mus musculus, CD4+ T, 24 h, read-out: qPCR results (IL-31 production (%)): based on the case using 0.1% DMSO taken as 100%.

T1 sequence (P97481 whole entry): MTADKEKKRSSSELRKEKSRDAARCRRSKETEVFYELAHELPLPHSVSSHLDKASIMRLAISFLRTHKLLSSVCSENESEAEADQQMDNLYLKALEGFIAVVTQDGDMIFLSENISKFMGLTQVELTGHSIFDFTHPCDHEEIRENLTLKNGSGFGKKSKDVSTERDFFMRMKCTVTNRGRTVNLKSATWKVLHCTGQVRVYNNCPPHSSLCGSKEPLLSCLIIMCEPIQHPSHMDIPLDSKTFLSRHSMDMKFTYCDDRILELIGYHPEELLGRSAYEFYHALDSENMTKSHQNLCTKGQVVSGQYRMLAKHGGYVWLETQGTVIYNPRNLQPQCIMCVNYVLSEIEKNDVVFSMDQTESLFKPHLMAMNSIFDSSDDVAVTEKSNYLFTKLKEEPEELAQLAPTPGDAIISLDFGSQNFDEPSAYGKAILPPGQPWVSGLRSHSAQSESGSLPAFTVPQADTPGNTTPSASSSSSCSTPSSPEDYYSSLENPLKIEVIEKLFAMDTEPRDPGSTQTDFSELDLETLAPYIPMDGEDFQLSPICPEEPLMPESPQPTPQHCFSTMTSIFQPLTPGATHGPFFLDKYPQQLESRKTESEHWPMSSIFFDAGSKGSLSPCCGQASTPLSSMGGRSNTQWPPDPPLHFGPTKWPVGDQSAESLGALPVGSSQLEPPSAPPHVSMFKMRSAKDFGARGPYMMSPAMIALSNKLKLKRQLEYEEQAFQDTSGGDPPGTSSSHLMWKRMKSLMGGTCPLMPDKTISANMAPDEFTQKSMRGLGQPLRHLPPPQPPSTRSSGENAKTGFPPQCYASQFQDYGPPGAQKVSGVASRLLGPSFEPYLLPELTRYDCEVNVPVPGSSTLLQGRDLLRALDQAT

`CC(C)c1ccc(/C=N/Nc2ccc(C(=O)O)cc2)cc1` [Compound 1, 4-(2-(4-Isopropylbenzylidene)hydrazinyl)benzoic Acid]: in series [1] (2.5 μM, FIG. 2A), the “antigen-induced IL-31 gene expression (in words)” value is on record as “significantly inhibited”. In series [1] (setting [14]), the activity at 0.078 µM came out at 57.5%, the activity at 0.156 µM was found to be 40.1%, the activity at 0.312 µM was 38.7% and the activity at 0.625 µM is 23.9%. The activity at 1.25 µM in [1] (setting [14]) came to 16.4%. The “effect on non-specific T cell proliferation induced by PMA and ionomycin” value in [2] (FIG. 4) was “neither of these compounds had an adverse effect”. In addition, the “effect on non-specific T-cell proliferation response in vitro” value in series [2] (even when used at 50 μM) was “did not affect”. Also, the “effect on expression of IL-2 gene” value in series [3] is recorded as “neither of these compounds had an effect”. Also, the “effect on expression of IL-4 gene” value in series [4] is recorded as “neither of these compounds had an effect”. For the same compound, in series [5], the “body weight gain versus non-treated group” value is “did not differ from the non-treated group” and the “histological or biochemical abnormalities” value is recorded as “no histological or biochemical abnormalities”. Besides, in [6], the “time after oral administration within which compound was eluted into the blood” value is at most 12 h. The “scratch behavior (number of scratching bouts during 2 hours)” value in series [7] was “significantly suppressed”. Besides, the “VEGFA expression induced by hypoxia” value in [8] is reported as “did not show such an effect of suppressing expression”. In addition, in [9], the “GLUT1 expression induced by hypoxia” value is listed as “did not show such an effect of suppressing expression”. Besides, in series [10], the “recruitment of EPAS1 to the IL-31 gene promoter region (−1336 to −1042)” value was “greatly reduced”. Further, in series [11], the “IL-31 production by CD4+ T cells of AD patients” value is on record as “reduced IL-31 production in a dose-dependent manner”. For the same compound, in series [12], the “IL-2 production by CD4+ T cells of AD patients” value is given as “not affected”. Further, the “activation of the human IL-31 gene promoter” value in [13] was “significantly suppressed”.
